Several values for one entry are separate records, joined by “and”; a condition that tells them apart may be missing. Equal entries are not always repeated. Where two headings read alike, the source gives them in different places.
Assays:
UGT1A3 = target: T1, UGT1A3 (Homo sapiens, UniProt P35503); assay: Inhibition of recombinant UGT-catalyzed 4-MU glucuronidation; type: biochemical; settings: for inhibition at 120 min, 100 µM: human, pH 7.4, probe 4-methylumbelliferone (4-MU), 1200 μM, 100 μM compound, 4-MU probe substrate, negative = activation
T1 construct: purchased BD Gentest Corp. (Woburn, MA, USA); host or cells: baculovirus-infected insect cells
T1 sequence (P35503 29-534): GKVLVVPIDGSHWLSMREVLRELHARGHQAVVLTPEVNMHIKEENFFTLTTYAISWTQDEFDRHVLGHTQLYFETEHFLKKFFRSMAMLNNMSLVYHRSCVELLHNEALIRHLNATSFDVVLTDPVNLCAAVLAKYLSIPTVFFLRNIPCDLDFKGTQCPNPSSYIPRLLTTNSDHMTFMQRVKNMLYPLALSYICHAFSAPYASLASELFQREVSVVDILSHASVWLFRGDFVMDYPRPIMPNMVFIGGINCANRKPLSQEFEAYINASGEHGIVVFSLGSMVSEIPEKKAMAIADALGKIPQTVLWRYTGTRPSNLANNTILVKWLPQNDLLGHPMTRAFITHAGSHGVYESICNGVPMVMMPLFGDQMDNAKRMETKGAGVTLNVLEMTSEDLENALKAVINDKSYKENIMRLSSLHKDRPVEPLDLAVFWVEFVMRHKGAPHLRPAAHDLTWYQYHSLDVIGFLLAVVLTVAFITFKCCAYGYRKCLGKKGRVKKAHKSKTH

[1] = rat, cited from earlier work
[2] = parameters: method as in PMID 26434292; settings: human, oral 0.9 g mangiferin, cited from earlier work

IC50 (UGT1A3; 4-MU glucuronidation, Probit analysis, read-out: IC50 towards UGT1A3) [µM] | inhibition type towards UGT1A3 (UGT1A3; Dixon plot and Lineweaver-Burk plot) | inhibition at 120 min, 100 µM (UGT1A3) [%] | Ki (UGT1A3; second plot of Lineweaver-Burk slopes, read-out: inhibition constant (Ki) towards UGT1A3) [µM] | Compound | maximum concentration in the plasma ([1]; oral MGF 70mg/kg) | maximum concentration in the plasma ([1]; oral MGF 120 mg/kg) | concentration in plasma reached ([2]; about 1 h) | time at which the plasma concentration was reached [2]
8.2 | competitively inhibited | 87.6 | 1.6 | O=c1c2cc(O)c(O)cc2oc2cc(O)cc(O)c12 [NTR, 1,3,6,7-tetrahydroxyxanthone] |  |  |  | 
 |  | -16 |  | O=c1c2cc(O)c(O)cc2oc2cc(O)c([C@@H]3O[C@H](CO)[C@@H](O)[C@H](O)[C@H]3O)c(O)c12 [MGF, 1,3,6,7-tetrahydroxyxanthone-C-2-β-D-glucoside] | 0.19 μg/mL and 0.45 μM | 8.13 ± 1.96 μg/mL and 19.2 ± 4.64 μM | 38.64 ± 6.75 ng/mL and 0.091 ± 0.016 μM | about 1 h
